Earlier results, collected in patent US20240148714A1, “Triple Negative Breast Cancer Treatment Method” (Exelixis, Inc., priority 2016, published 2024).

Test system: mTNBC
Settings: bevacizumab and onartuzumab combined, with paclitaxel; mTNBC patients without previous paclitaxel for metastatic disease; cited from earlier work

Row | Substance | clinical benefit
1 | onartuzumab | no clinical benefit
2 | bevacizumab | no clinical benefit
